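How tested: cells in 96-well plates exposed to compound for 48 hours at five concentrations. GI50 is the concentration that inhibits growth by half.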 Calls of active or inactive are those of the source. Rule as the data show it: active = GI50 up to about 1.1 µM and inactive = higher.
Experiments:
Experiment in all cases: inhibition of tumour cell growth, NCI panel, 48 h
SW-620 = tested on: SW-620
UO-31 = tested on: UO-31
K562 = tested on: K562
SK-MEL-2 = tested on: SK-MEL-2
NCI-H23 = tested on: NCI-H23
NCI-H460 = tested on: NCI-H460
SN12C = tested on: SN12C
UACC-62 = tested on: UACC-62
U-251 = tested on: U-251
CCRF-CEM = tested on: CCRF-CEM
KM12 = tested on: KM12
SF-268 = tested on: SF-268
HCT-15 = tested on: HCT-15
HT-29 = tested on: HT-29
RPMI-8226 = tested on: RPMI-8226
HOP-62 = tested on: HOP-62
HCT-116 = tested on: HCT-116
HOP-92 = tested on: HOP-92
SK-MEL-28 = tested on: SK-MEL-28
COLO 205 = tested on: COLO 205

SMILES | GI50 (SW-620) | GI50 (UO-31) | GI50 (K562) | GI50 (SK-MEL-2) | GI50 (NCI-H23) | GI50 (NCI-H460) | GI50 (SN12C) | GI50 (UACC-62) | GI50 (U-251) | GI50 (CCRF-CEM) | GI50 (KM12) | GI50 (SF-268) | GI50 (HCT-15) [µM] | GI50 (HT-29) | GI50 (RPMI-8226) | GI50 (HOP-62) | GI50 (HCT-116) | GI50 (HOP-92) | GI50 (SK-MEL-28) | GI50 (COLO 205)
O=C1Cc2c(-c3ccccc3)cc(-c3ccccc3)nc2-c2ccccc2N1 | 5.47 µM (inactive) | 3.71 µM (inactive) | 8.02 µM (inactive) | 2.66 µM (inactive) | 6.65 µM (inactive) | 4.01 µM (inactive) | 4.04 µM (inactive) | 6.89 µM (inactive) | 3.09 µM (inactive) | 17.2 µM (inactive) | 2.84 µM (inactive) | 5.7 µM (inactive) | 1.57 | 3.61 µM (inactive) | 39.7 µM (inactive) | 2.64 µM (inactive) | 2.24 µM (inactive) | 21.3 µM (inactive) | 5.12 µM (inactive) | 2.21 µM (inactive)
CC1(C)CCC[C@@]2(C)C1C[C@H](O)[C@@]1(C)O[C@@](C)([C@H](O)CO)CCC21 (stereo not given in full) | 47 µM (inactive) | 26.1 µM (inactive) | 26.9 µM (inactive) | 20.7 µM (inactive) | 33.7 µM (inactive) | 40.9 µM (inactive) | 37.2 µM (inactive) | 28.6 µM (inactive) | 37.2 µM (inactive) | 29.7 µM (inactive) | 37.2 µM (inactive) | 30.4 µM (inactive) | 45.5 | 33 µM (inactive) | 20 µM (inactive) | 62.7 µM (inactive) | 33 µM (inactive) | 23.7 µM (inactive) | 34.6 µM (inactive) | 25.3 µM (inactive)
COc1ccc(C[C@H](N)C(=O)N2C[C@H](CO)C[C@H](n3cnc4c(N(C)C)ncnc43)C2)cc1 | > 100 µM (inactive) | > 100 µM (inactive) | > 100 µM (inactive) | > 100 µM (inactive) | > 100 µM (inactive) | > 100 µM (inactive) | > 100 µM (inactive) | > 100 µM (inactive) | > 100 µM (inactive) | > 100 µM (inactive) | > 100 µM (inactive) | > 100 µM (inactive) | > 100 | > 100 µM (inactive) | > 100 µM (inactive) | > 100 µM (inactive) | > 100 µM (inactive) | 57 µM (inactive) | > 100 µM (inactive) | > 100 µM (inactive)
COc1ccc(/C=C/c2ccnc3ccccc23)cc1 | 17.7 µM (inactive) | 0.021 µM (active) | 6.34 µM (inactive) | 20.3 µM (inactive) | 12.7 µM (inactive) | 23.6 µM (inactive) | 18.6 µM (inactive) | 15.7 µM (inactive) | 17.1 µM (inactive) | 10.5 µM (inactive) | 16.5 µM (inactive) | 15.2 µM (inactive) | 18.1 | 10.4 µM (inactive) | 10.7 µM (inactive) | 20.5 µM (inactive) | 15.7 µM (inactive) | 4.66 µM (inactive) | 14.5 µM (inactive) | 16.8 µM (inactive)
CC(=O)O[C@H]1CC[C@]2(C=O)[C@H]3CC[C@]4(C)[C@@H](C5=CC(=O)OC5)CC[C@]4(O)[C@@H]3CC[C@]2(O)C1 [STROPHANTHIDIN ACETATE] | 0.264 µM (active) | 0.23 µM (active) | 0.83 µM (active) | 0.324 µM (active) | 0.111 µM (active) | 0.0578 µM (active) | 0.42 µM (active) | 0.353 µM (active) | 0.296 µM (active) | 0.0605 µM (active) | 0.692 µM (active) | 0.171 µM (active) | 0.203 | 0.212 µM (active) | 0.313 µM (active) | 0.226 µM (active) | 0.11 µM (active) | 0.424 µM (active) | 0.774 µM (active) | 0.378 µM (active)
O=C1C=CC(=O)C1(Br)Br | 10.1 µM (inactive) | 6.27 µM (inactive) | 10.2 µM (inactive) | 12.5 µM (inactive) | 15.5 µM (inactive) | 19.3 µM (inactive) | 7.96 µM (inactive) | 10.8 µM (inactive) | 12.3 µM (inactive) | 7.55 µM (inactive) | 13.1 µM (inactive) | 18.5 µM (inactive) | 6.53 | 7.38 µM (inactive) | 6.64 µM (inactive) | 17.6 µM (inactive) | 7.69 µM (inactive) | 16.3 µM (inactive) | 7.24 µM (inactive) | 10 µM (inactive)
O=C1CSC(C(/N=N/c2ccc(Cl)cc2)c2nc3ccccc3[nH]2)=N1 (stereo not given) | > 100 µM (inactive) | 39.1 µM (inactive) | 61.8 µM (inactive) | 16 µM (inactive) | 63 µM (inactive) | 33 µM (inactive) | > 100 µM (inactive) | > 100 µM (inactive) | 53.3 µM (inactive) | 10.7 µM (inactive) | 45.8 µM (inactive) | > 100 µM (inactive) | > 100 | > 100 µM (inactive) | > 100 µM (inactive) | 35.2 µM (inactive) | > 100 µM (inactive) | 54 µM (inactive) | 35.5 µM (inactive) | > 100 µM (inactive)
COc1ccc(-c2c3c(nc4nc(SC)nc(SC)c24)CCCC3)cc1OC | 67.5 µM (inactive) | 37.1 µM (inactive) | 28.2 µM (inactive) | 25.8 µM (inactive) | > 100 µM (inactive) | 29.2 µM (inactive) | > 100 µM (inactive) | 67.6 µM (inactive) | 70.3 µM (inactive) | 21.3 µM (inactive) | 81.3 µM (inactive) | 82.2 µM (inactive) | 16 | 36.6 µM (inactive) | 45.8 µM (inactive) | 46.8 µM (inactive) | 44.4 µM (inactive) | 40.2 µM (inactive) | 59.7 µM (inactive) | > 100 µM (inactive)
CC(=O)N1N=C(c2ccc3ccccc3c2O)CC1c1cccs1 (stereo not given) | 16 µM (inactive) | 9.95 µM (inactive) | 4.18 µM (inactive) | 19 µM (inactive) | 20.3 µM (inactive) | 8.49 µM (inactive) | 12.1 µM (inactive) | 9.31 µM (inactive) | 8.09 µM (inactive) | 4.04 µM (inactive) | 14.4 µM (inactive) | 12.3 µM (inactive) | 14 | 21.9 µM (inactive) | 6.55 µM (inactive) | 16.3 µM (inactive) | 9.89 µM (inactive) | 33.7 µM (inactive) | 37.2 µM (inactive) | 20.2 µM (inactive)
O=c1c(C(c2ccccn2)c2c(O)oc3cc(O)ccc3c2=O)c(O)oc2cc(O)ccc12 | > 100 µM (inactive) | > 100 µM (inactive) | > 100 µM (inactive) | > 100 µM (inactive) | > 100 µM (inactive) | > 100 µM (inactive) | > 100 µM (inactive) | > 100 µM (inactive) | > 100 µM (inactive) | > 100 µM (inactive) | > 100 µM (inactive) | > 100 µM (inactive) | > 100 | > 100 µM (inactive) | > 100 µM (inactive) | > 100 µM (inactive) | > 100 µM (inactive) | > 100 µM (inactive) | > 100 µM (inactive) | > 100 µM (inactive)

— ChEMBL document CHEMBL1201862, “PubChem BioAssay data set” (2004)
